The NIST ThermoML archive (doi:10.1016/j.tca.2014.08.035)
Numbers after ± are expanded uncertainties.

Tests used:
[1] = DTA
[2] = Molar enthalpy of transition or fusion; conditions: DSC
[3] = molar enthalpy of transition or fusion; conditions: 640.05 K; Crystal 2; DSC
[4] = Solid-liquid equilibrium temperature; conditions: 10000 kPa; Crystal 2; DTA

O=S(=O)([O-])O.[NH4+] [ammonium acid sulfate]
Normal melting temperature ([1]; Crystal): 144.20 ± 0.5 °C
Molar enthalpy of transition or fusion ([2]; Crystal): 3.51 ± 0.143 kcal/mol

N.NS(=O)(=O)O [ammonium sulfamate]
Normal melting temperature ([1]; Crystal): 132.90 ± 0.4 °C
Molar enthalpy of transition or fusion ([2]; Crystal): 3.99 ± 0.143 kcal/mol

N.N.O=S(=O)(O)O [ammonium sulfate]
molar enthalpy of transition or fusion [3]: 0.669 ± 0.191 kcal/mol
Molar enthalpy of transition or fusion ([2]; Crystal 3): 0.681 ± 0.43 kcal/mol
Solid-liquid equilibrium temperature [4]: 640.05 ± 0.8 K

O=S(=O)([O-])O.O=S(=O)([O-])[O-].[NH4+].[NH4+].[NH4+] [triammonium hydrogen disulfate]
Normal melting temperature ([1]; Crystal 1): 229.00 ± 4 °C
Triple point temperature ([1]; Crystal 2): 412.85 ± 0.5 K
Molar enthalpy of transition or fusion ([2]; Crystal 1): 7.65 ± 1.91 kcal/mol
Molar enthalpy of transition or fusion ([2]; Crystal 2): 0.645 ± 0.0717 kcal/mol
